Results on 7 molecules are retold here after publication PMC11547375, “Peptide Dimerization as a Strategy for the Development of Antileishmanial Compounds” (Molecules, 2024).

The target of one data set is LmCPB2.8ΔCTE (CPB) (Leishmania mexicana, UniProt P36400). The conditions noted are these: cited from earlier work. From the text: (§1) In addition to the membrane, peptides may have other therapeutic targets in Leishmania. Enzymes are essential for functional integrity and virulence, highlighting the fundamental role of cysteine proteases in the infectious process, so their inhibition can have high therapeutic potential, enabling the design of new drugs. In L. mexicana, three cysteine protease genes were identified as virulence factors: lmcpa, lmcpb, and lmcpc. Of these, lmcpb encodes a protein product like cathepsin L and is the most abundant in the amastigote form of the parasite, so this enzyme is an i ...

The subject of a further data set is peritoneal macrophages. Kind of data set: Cytotoxicity in peritoneal macrophages. The format is cell-based. The conditions noted are these: peritoneal macrophages of Swiss mice. As to the method:
(§2) The L. amazonensis promastigotes (MPRO/BR/1972/M1841-LV-79) were grown in LIT culture medium, while the L. mexicana promastigotes (MNYC/BZ/62/M379) were cultivated in Schneider’s medium (Sigma-Aldrich, St. Louis, MO, USA), supplemented with 10% heat-inactivated fetal bovine serum (FBS; Gibco/Invitrogen, Waltham, MA, USA) at 28 °C until reaching the mid-log phase of growth. Macrophages were sourced from the peritoneal cavity of Swiss mice using the methodology outlined by de Almeida et al.. Anti-promastigote and anti-amastigote assays of L. mexicana and L. amazonensis and their cytotoxic activity were conducted as previously described. IC50 is the concentration capable of killing 50% of the parasites. The drug concentration that inhibited 50% of cell growth was denoted as the 50% cytotoxic concentration (CC50). Cytotoxicity for the host cells and the protozoan species was compared and expressed as the selectivity index (SI), calculated as the ratio of the CC50 for macrophages to the IC50 for the protozoan species.

Data set [1] concerns L. mexicana promastigotes. Kind of data set: Membrane damage by fluorescence microscopy (PI/Hoechst). The conditions noted are these: 1.25 and 2.5 µmol L^−1, 24 h; ratio PI-labeled / Hoechst-labeled parasites. The format is cell-based, Leishmania mexicana. The protocol: Fluorescence microscopy assays were also employed to investigate the mechanism of action of the peptides. […] In addition, the ratio of PI-labeled cells to Hoechst-labeled cells was used to determine the percentage of cells that had suffered some type of membrane damage. Images were also obtained after the treatments of the promastigote form with the TSHa peptide, the dimeric (TSHa)2K peptide, and the Amp B control drug at concentrations of 2.5 and 1.25 µmol L^−1 after 2 and 24 h to evaluate the mechanism of action of these molecules and whether the time of exposure to the compounds might affect their activity. […] The results for the other treatments are provided in the Supplementary Materials (Figures S1–S10).
For fluorescence microscopy, assays were carried out with promastigotes of L. mexicana in the exponential phase of growth in passage P3 at a concentration of 1 × 10^7 cells mL^−1. Treatments were performed with Amp B and the peptides at concentrations of 1.25 or 2.5 μmol L^−1 for 2 or 24 h, respectively. The parasites were labeled with 5 μg mL^−1 of Hoechst solution (stock: 1 mg mL^−1) for 5 min, followed by the addition of PI (1 mg mL^−1) to a final concentration of 40 μg mL^−1 and incubation for 20 min at room temperature. […] Images were acquired with a fluorescence microscope (Nikon DS-R11,10 Nikon Instruments Inc., Melville, NY, USA) at 40× magnification. […]

Data set [2] deals with L. amazonensis promastigotes. Put plainly: microbe, parasite or virus in culture. Format: cell-based, Leishmania amazonensis. The conditions noted are these: Leishmania amazonensis, read-out: IC50 Promastigote. As to the method: as §2
Data set [3] relates to L. mexicana promastigotes. Put plainly: Membrane damage by flow cytometry with propidium iodide. Format: cell-based, Leishmania mexicana. The conditions noted are these: 1 × IC50; promastigotes 5 × 10^6 cells mL^−1, PI 80 µg mL^−1 20 min; given in Figure 11. As to the method: The mechanism of action of the peptides on the membrane was also evaluated by flow cytometry using propidium iodide. Flow cytometry has been considered more reliable for studies of cell susceptibility because it provides intrinsic information about cells, such as size and complexity. The use of fluorochromes allows for the evaluation of a wide range of physiological or morphological parameters, such as membrane integrity, pH, membrane potential, and viability. The results presented here (Figure 11) are expressed as the fluorescence intensity of the PI-labeled L. mexicana cells, considering that the damage caused to the parasite membrane facilitated the entry of PI into the cell nucleus.
For flow cytometry assays, the promastigotes of L. mexicana were grown in Schneider medium (Sigma) supplemented with inactivated fetal bovine serum. […] After incubation, the promastigotes were washed twice with PBS and labeled with propidium iodide (PI) (80 μg mL^−1) for 20 min, followed by centrifugation at 2000× g for 10 min and resuspension in 500 μL of PBS. The samples were analyzed using an Accuri C6 flow cytometer (BD Biosciences, Franklin Lakes, NJ, USA) and proprietary software, with at least 50,000 events effectively included in each analysis. All the experiments were performed using biological duplicates in triplicate at each experimental point.
For orientation: Flow cytometry measures light scatter and fluorescence of single cells or particles in a stream.

Data set [4] relates to L. amazonensis amastigotes. Put plainly: microbe, parasite or virus in culture. The format is cell-based, Leishmania amazonensis. To be noted: Leishmania amazonensis, read-out: IC50 Amastigote. As to the method: (§3) Macrophages were sourced from the peritoneal cavity of Swiss mice using the methodology outlined by de Almeida et al.. Anti-promastigote and anti-amastigote assays of L. mexicana and L. amazonensis and their cytotoxic activity were conducted as previously described. […] Cytotoxicity for the host cells and the protozoan species was compared and expressed as the selectivity index (SI), calculated as the ratio of the CC50 for macrophages to the IC50 for the protozoan species.

Another data set deals with L. mexicana amastigotes. Kind of data set: microbe, parasite or virus in culture. Format: cell-based, Leishmania mexicana. The conditions noted are these: Leishmania mexicana, ± standard deviation, SD. As to the method: as §3
Data set [5] has as its system L. mexicana promastigotes. Kind of data set: microbe, parasite or virus in culture. The conditions noted are these: Leishmania mexicana, ± standard deviation, SD, read-out: IC50 Promastigote. Format: cell-based, Leishmania mexicana. As to the method: as §2
Another data set has as its target cathepsin B. To be noted: cited from earlier work.
Text: as §1

Data set [6] concerns the target LmCPB2.8ΔCTE (CPB), cysteine protease of Leishmania mexicana (L. mexicana) (UniProt P36400).
Data set [7] relates to L. mexicana intracellular amastigotes. Kind of data set: Infection index, L. mexicana intracellular amastigotes in macrophages. Format: cell-based, Leishmania mexicana. To be noted: 24 h of treatment. The protocol:
During the infection process, the amastigotes replicated in macrophages are transmitted to healthy cells, leading to the amplification of infection; the greater the parasitic load is, the worse the infection is. The infection index (percentage of infected cells x number of parasites per infected cell) was used to evaluate this transmission. In this work, the infection index was determined using L. mexicana for 24 h (Figure 6) and 48 h of treatment (Figure 7).
as §2, with “The drug concentration that inhibited 50% of cell growth was denoted as the 50% cytotoxic concentration (CC50).” left out

Data set [8] is described as follows: Carboxyfluorescein leakage from POPC-Chol (4:1) vesicles mimicking host membrane. The conditions noted are these: POPC–Chol (4:1) LUVs, peptide tested at 1 and 5 µmol L^−1.
Description: Large unilamellar vesicles (LUVs) composed of POPC (1-palmitoyl-2-oleoyl-sn-glycero-3-phosphatidylcholine) and cholesterol (Chol) (4:1), or POPC, POPS (1-palmitoyl-2-oleoyl-sn-glycero-3-serine), and ergosterol (Erg) (16:3:1) were prepared according to the methods described by Lorenzón et al. [34]. […] We employed a Hitachi U-2000 spectrophotometer (TSHa) (Hitachi, Tokyo, Japan) or a Fluorolog-3 FL3-122 spectrofluorometer (Horiba Jobin Yvon, Glasgow, UK) ((TSHa)2K) for analyses.
For data set [9] the following is noted: POPC–POPS–Erg (16:3:1) LUVs. As to the method: To evaluate the effect of monomeric and dimeric peptides on the lipid membrane and relate it to the mechanism of action, vesicle permeabilization studies were carried out for evaluating the possible mechanisms on membrane. The leakage assays were carried out with carboxyfluorescein (CF) internalized in the mimetic membranes. The vesicles of POPC–Chol (4:1) and POPC–POPS (phosphatidylserine)–ergosterol (16:3:1) were employed. These mimetic membranes were designed considering the compositions of phospholipids and steroids in the host membrane and in the Leishmania membrane, respectively. The constitution of the cell membrane of Leishmania varies according to the morphology of the parasite and its stage of development, but is more negative than the cell membranes of mammals, which allow for cationic AMPs to bind more easily. Our studies were based on the membrane of the promastigote form, which is characterized by the presence of mainly phosphatidylcholine, phosphatidylethanolamine, phosphatidylinositol, phosphatidylserine, and ergosterol, in addition to diglycerides and glycolipids containing mannose and galactose. In the amastigote form of Leishmania, there is a higher concentration of fatty acids and cholesterol, while triglycerides and ergosterol decrease during the transition from promastigotes to amastigotes. In addition, the main phospholipids found are sphingomyelin and phosphatidylserine, with lower proportions of phosphatidylinositol and lysophosphatidylethanolamine.
Large unilamellar vesicles (LUVs) composed of POPC (1-palmitoyl-2-oleoyl-sn-glycero-3-phosphatidylcholine) and cholesterol (Chol) (4:1), or POPC, POPS (1-palmitoyl-2-oleoyl-sn-glycero-3-serine), and ergosterol (Erg) (16:3:1) were prepared according to the methods described by Lorenzón et al.. […] We employed a Hitachi U-2000 spectrophotometer (TSHa) (Hitachi, Tokyo, Japan) or a Fluorolog-3 FL3-122 spectrofluorometer (Horiba Jobin Yvon, Glasgow, UK) ((TSHa)2K) for analyses.

Data set [10] has as its system L. amazonensis intracellular amastigotes. Kind of data set: Infection index, L. amazonensis intracellular amastigotes in macrophages. The format is cell-based, Leishmania amazonensis. To be noted: 24 h of treatment.

Like-named read-outs stand apart in the source and are kept apart here. Positions of bridges follow the written chain, without caps; N, C: chain ends. Residues, ends and D or L forms follow the SMILES beside them. Chains are numbered I, II in the order given. No end group written: not given here.

`CC(C)C[C@H](NC(=O)[C@H]1O[C@@H]1C(=O)O)C(=O)NCCCCN=C(N)N` (relative stereo) [Peptide E64, L-trans-epoxysuccinyl-leucylamido-(4-guanidino)butane]: on LmCPB2.8ΔCTE (CPB), the “inhibition of Leishmania CPB, in words” value is reported as “in the nanomolar range is a potent irreversible inhibitor”.

Regarding `C[C@@H]1[C@H](O)[C@@H](C)/C=C/C=C/C=C/C=C/C=C/C=C/C=C/[C@H](O[C@@H]2O[C@H](C)[C@@H](O)[C@H](N)[C@@H]2O)C[C@@H]2O[C@](O)(C[C@@H](O)C[C@@H](O)[C@H](O)CC[C@@H](O)C[C@@H](O)CC(=O)O[C@H]1C)C[C@H](O)[C@H]2C(=O)O` [Amp B, Amphotericin B], the “CC50 Peritoneal Macrophages” value in the data set on peritoneal macrophages (Table 1, ± standard deviation, SD) is 24 ± 0.02 µmol/L. For the same molecule, the “CC50 Peritoneal Macrophage” value in the data set on peritoneal macrophages (Table 2) is 24 ± 0.4 µmol/L. Also, the “membrane damage, in words” value in [1] is listed as “caused damage to the membrane”. For the same molecule, the IC50 – broadly, the concentration at which inhibition is half-maximal – in data set [2] is 700 ± 200 nM; in [4], 630 ± 20 nM; with L. mexicana amastigotes (24 h of treatment, read-out: IC50 Amastigote 24 h of Treatment), 630 ± 1200 nM; with L. mexicana amastigotes (48 h of treatment, read-out: IC50 Amastigote 48 h of Treatment), 630 ± 1200 nM; in data set [5], 500 ± 200 nM. In data set [3], the “V1-L gate (cells not labeled with PI)” value came to 55.2%. Also, the “V1-R gate (PI-labeled cells)” value in [3] was determined as 44.8%.

Turning to Z-Arg-Leu-Val-Gly-Ile-Val-O-methyl, at cathepsin B, the Ki (as a rule, a dissociation constant, usually derived from enzyme kinetics or from competition with a known ligand) was 0.088 nM.

In [6], dimeric peptide (TSHa)2K returned an IC50 of inhibition of the enzyme activity of CPB (LmCPB2.8ΔCTE) of 3.6 µmol/L and an Inhibitory Activity at 20 μmol L^−1 (%): inhibition of the enzyme activity of CPB (LmCPB2.8ΔCTE) by the peptide of 98%.

Consider `Cc1ccc(C(=O)[C@@]23C(=O)OC(=O)C2N(C)[C@]2(c4ccccc4)Sc4ccccc4[C@H]32)cc1` (stereo partly drawn) [derivative of benzo[b]thiophene, (4aS,9bS,9cS)-4-methyl-9c-(4-methylbenzoyl)-4a-phenyl-4,4a,9b,9c-tetrahydro-1H-benzo[4,5]thieno[2,3-b]furo[3,4-d]pyrrole-1,3(3aH)-dione], for which the IC50 on LmCPB2.8ΔCTE (CPB) (read-out: IC50-CEC, LmCPB2.8△CTE (CEC)) was 3.7 µM.

Turning to `CC[C@H](C)[C@H](NC(=O)CNC(=O)[C@H](CO)NC(=O)[C@H](CC(C)C)NC(=O)[C@@H](N)Cc1ccccc1)C(=O)N[C@H](C(=O)NCC(=O)N[C@@H](CCSC)C(=O)N[C@@H](CC(C)C)C(=O)NCC(=O)N[C@@H](CCCCN)C(=O)N[C@@H](CC(C)C)C(=O)N[C@@H](Cc1ccccc1)C(=O)NCCCC[C@H](NC(=O)[C@H](Cc1ccccc1)NC(=O)[C@H](CC(C)C)NC(=O)[C@H](CCCCN)NC(=O)CNC(=O)[C@H](CC(C)C)NC(=O)[C@H](CCSC)NC(=O)CNC(=O)[C@@H](NC(=O)[C@@H](NC(=O)CNC(=O)[C@H](CO)NC(=O)[C@H](CC(C)C)NC(=O)[C@@H](N)Cc1ccccc1)[C@@H](C)CC)C(C)C)C(N)=O)C(C)C` [(TSHa)2K] (I: H-FLSGIVGMLGKLFK-NH2 / II: H-FLSGIVGMLGKLF; amide I:14-II:C; N-terminus assumed), the results for the “decrease of infection rate (infection index) vs untreated infected cells” value in [7] and in [10] were 5.5 fold and 3.8 fold, respectively. In data set [1], the “membrane damage, in words” value is listed as “caused damage to the membrane”. Further, the “permeabilization of POPC–Chol vesicles, in words” value in data set [8] was “No permeabilization”. In addition, the “V1-L gate (cells not labeled with PI)” value in [3] stood at 52.8%. Further, the “V1-R gate (PI-labeled cells)” value in data set [3] came to 47.2%. Moreover, the CF release was found to be 20% in data set [9] (peptide 1 µmol L^−1, fluorescence) and 45% in [9] (peptide 5 µmol L^−1, fluorescence).

For FLSGIVGMLGKLF-NH2 [temporin peptide TSHa], in data set [6], the IC50 of inhibition of the enzyme activity of CPB (LmCPB2.8ΔCTE) was found to be 9.2 µmol/L and the Inhibitory Activity at 20 μmol L^−1 (%): inhibition of the enzyme activity of CPB (LmCPB2.8ΔCTE) by the peptide is 94.2%.
